According to PubChem BioAssay AID1259407 (Chemical Carcinogenesis Research Information System (CCRIS), 2018):
Active and inactive are the calls of the source. How the calls were made is not given here.

Tested on: CCRIS mutagenicity, Ames/micronucleus/aberration tests
Assay: CCRIS mutagenicity studies
[1] = Test System: AMES SALMONELLA TYPHIMURIUM, Strain/Indicator: TA100, Metabolic Activation: RAT, LIVER, S-9, AROCLOR 1254, Method: STANDARD PLATE
[2] = Test System: AMES SALMONELLA TYPHIMURIUM, Strain/Indicator: TA98, Metabolic Activation: NONE, Method: PREINCUBATION
[3] = Test System: AMES SALMONELLA TYPHIMURIUM, Strain/Indicator: TA100, Metabolic Activation: NONE, Method: PREINCUBATION
[4] = Test System: AMES SALMONELLA TYPHIMURIUM, Strain/Indicator: TA104, Metabolic Activation: NONE, Method: PREINCUBATION
[5] = Test System: AMES SALMONELLA TYPHIMURIUM, Strain/Indicator: TA98, Metabolic Activation: NONE, Method: STANDARD PLATE
[6] = Test System: AMES SALMONELLA TYPHIMURIUM, Strain/Indicator: TA98, Metabolic Activation: RAT, LIVER, S-9, AROCLOR 1254, Method: STANDARD PLATE
[7] = Test System: AMES SALMONELLA TYPHIMURIUM, Strain/Indicator: TA100, Metabolic Activation: NONE, Method: STANDARD PLATE

## OCc1c2ccccc2c2ccc3cccc4ccc1c2c43
Test System: AMES SALMONELLA TYPHIMURIUM, Strain/Indicator: TA98, Metabolic Activation: RAT, LIVER, CYTOSOL AND PAPS-GENERATING SYSTEM, Method: PREINCUBATION
  mutagenic call: active; positive
Test System: AMES SALMONELLA TYPHIMURIUM, Strain/Indicator: TA100, Metabolic Activation: RAT, LIVER, CYTOSOL AND PAPS-GENERATING SYSTEM, Method: PREINCUBATION
  mutagenic call: active; positive
[1]
  mutagenic call: active; positive
Test System: AMES SALMONELLA TYPHIMURIUM, Strain/Indicator: TA1538, Metabolic Activation: RAT, LIVER, S-9, AROCLOR 1254, Method: STANDARD PLATE
  mutagenic call: active; positive
Test System: CHINESE HAMSTER V-79, Strain/Indicator: V-79 (HGPRT)/6-THIOGUANINE, Metabolic Activation: NONE
  mutagenic call: active; positive
Test System: CHINESE HAMSTER V-79, Strain/Indicator: V-79 (NA/K-ATPASE)/OUABAIN, Metabolic Activation: NONE
  mutagenic call: active; positive
Test System: CHINESE HAMSTER V-79, Strain/Indicator: V-79/OUABAIN, Metabolic Activation: HAMSTER, EMBRYO, CELL-MEDIATED, Method: STANDARD PLATE
  mutagenic call: active; positive

## O=P1(N(CCCl)CCCl)NC(OO)CCO1 (centres undefined)
Test System: UDS HUMAN LYMPHOCYTES, Strain/Indicator: THY INCORP (NON-S-PHASE), Metabolic Activation: NONE, Method: LIQUID SCINTILLATION COUNTING
  mutagenic call: active; positive

## Nc1ccccc1O
Test System: AMES SALMONELLA TYPHIMURIUM, Strain/Indicator: TA98, Metabolic Activation: NONE
  mutagenic call: inactive; negative
Test System: AMES SALMONELLA TYPHIMURIUM, Strain/Indicator: TA98, Metabolic Activation: S-9
  mutagenic call: inactive; negative

## C[C@H](CCN=[N+]=[N-])c1ccccc1
Test System: AMES SALMONELLA TYPHIMURIUM, Strain/Indicator: TA100, Metabolic Activation: RAT, LIVER, S-9, PCB, Method: PREINCUBATION
  mutagenic call: active; positive

## O[C@@H]1[C@H]2O[C@H]2c2c(ccc3c4ccccc4c4ccccc4c23)[C@H]1O
Test System: AMES SALMONELLA TYPHIMURIUM, Strain/Indicator: TA97, Metabolic Activation: NONE, Method: PREINCUBATION
  mutagenic call: active; positive
[2]
  mutagenic call: active; positive
[3]
  mutagenic call: active; positive
[4]
  mutagenic call: active; positive
Test System: CHINESE HAMSTER V-79, Strain/Indicator: V-79/6-THIOGUANINE, Metabolic Activation: NONE
  mutagenic call: active; positive

## N=NCO
Test System: AMES SALMONELLA TYPHIMURIUM, Strain/Indicator: TA1535, Metabolic Activation: NONE, Method: STANDARD PLATE
  mutagenic call: active; positive
Test System: E. COLI, Strain/Indicator: WP2, Metabolic Activation: NONE, Method: STANDARD PLATE
  mutagenic call: active; positive
Test System: E. COLI, Strain/Indicator: WP2 UVRA, Metabolic Activation: NONE, Method: STANDARD PLATE
  mutagenic call: active; positive

## Cc1ccc2c([N+](=O)[O-])cc[n+]([O-])c2c1
Test System: UDS RODENT PRIMARY CELLS, Strain/Indicator: THY INCORP (NON-S-PHASE), Metabolic Activation: NONE, Method: AUTORADIOGRAPHY
  mutagenic call: active; positive

## O=S(=O)(O)c1ccc(N=Nc2c(O)c(S(=O)(=O)O)cc3cc(S(=O)(=O)O)ccc23)cc1
[2]
  mutagenic call: inactive; negative
Test System: AMES SALMONELLA TYPHIMURIUM, Strain/Indicator: TA98, Metabolic Activation: RAT, LIVER, S-9, PHENOBARBITAL, Method: PREINCUBATION
  mutagenic call: inactive; negative
[3]
  mutagenic call: inactive; negative
Test System: AMES SALMONELLA TYPHIMURIUM, Strain/Indicator: TA100, Metabolic Activation: RAT, LIVER, S-9, PHENOBARBITAL, Method: PREINCUBATION
  mutagenic call: inactive; negative

## O=NN1C(C(=O)O)CSC1C(O)C(O)C(O)C(O)CO (centres undefined)
[2]
  mutagenic call: inactive; negative
[5]
  mutagenic call: inactive; negative
Test System: AMES SALMONELLA TYPHIMURIUM, Strain/Indicator: TA98, Metabolic Activation: RAT, LIVER, S-9, AROCLOR 1254, Method: PREINCUBATION
  mutagenic call: inactive; negative
[6]
  mutagenic call: inactive; negative
[3]
  mutagenic call: inactive; negative
[7]
  mutagenic call: inactive; negative
Test System: AMES SALMONELLA TYPHIMURIUM, Strain/Indicator: TA100, Metabolic Activation: RAT, LIVER, S-9, AROCLOR 1254, Method: PREINCUBATION
  mutagenic call: inactive; negative
[1]
  mutagenic call: inactive; negative

## CC(=O)N(C)c1ccc(N=Nc2ccc(N(C)C(C)=O)cc2)cc1
Test System: AMES SALMONELLA TYPHIMURIUM, Strain/Indicator: TA98, Metabolic Activation: RAT, LIVER, S-9, POLYCHLORINATED BIPHENYLS, Method: PREINCUBATION
  mutagenic call: inactive; negative
Test System: AMES SALMONELLA TYPHIMURIUM, Strain/Indicator: TA100, Metabolic Activation: RAT, LIVER, S-9, POLYCHLORINATED BIPHENYLS, Method: PREINCUBATION
  mutagenic call: inactive; negative

## CCOCCCl
[2]
  mutagenic call: inactive; negative
Test System: AMES SALMONELLA TYPHIMURIUM, Strain/Indicator: TA98, Metabolic Activation: RAT, LIVER, S-9, PHENOBARBITAL AND BETA-NAPHTHOFLAVONE, Method: PREINCUBATION
  mutagenic call: inactive; negative
[3]
  mutagenic call: inactive; negative
Test System: AMES SALMONELLA TYPHIMURIUM, Strain/Indicator: TA100, Metabolic Activation: RAT, LIVER, S-9, PHENOBARBITAL AND BETA-NAPHTHOFLAVONE, Method: PREINCUBATION
  mutagenic call: inactive; negative
Test System: AMES SALMONELLA TYPHIMURIUM, Strain/Indicator: TA102, Metabolic Activation: NONE, Method: PREINCUBATION
  mutagenic call: inactive; negative
Test System: AMES SALMONELLA TYPHIMURIUM, Strain/Indicator: TA102, Metabolic Activation: RAT, LIVER, S-9, PHENOBARBITAL AND BETA-NAPHTHOFLAVONE, Method: PREINCUBATION
  mutagenic call: inactive; negative
[4]
  mutagenic call: active; positive
Test System: AMES SALMONELLA TYPHIMURIUM, Strain/Indicator: TA104, Metabolic Activation: RAT, LIVER, S-9, PHENOBARBITAL AND BETA-NAPHTHOFLAVONE, Method: PREINCUBATION
  mutagenic call: inactive; negative
Test System: AMES SALMONELLA TYPHIMURIUM, Strain/Indicator: TA1535, Metabolic Activation: NONE, Method: PREINCUBATION
  mutagenic call: inactive; negative
Test System: AMES SALMONELLA TYPHIMURIUM, Strain/Indicator: TA1535, Metabolic Activation: RAT, LIVER, S-9, PHENOBARBITAL AND BETA-NAPHTHOFLAVONE, Method: PREINCUBATION
  mutagenic call: inactive; negative
Test System: AMES SALMONELLA TYPHIMURIUM, Strain/Indicator: TA1537, Metabolic Activation: NONE, Method: PREINCUBATION
  mutagenic call: inactive; negative
Test System: AMES SALMONELLA TYPHIMURIUM, Strain/Indicator: TA1537, Metabolic Activation: RAT, LIVER, S-9, PHENOBARBITAL AND BETA-NAPHTHOFLAVONE, Method: PREINCUBATION
  mutagenic call: inactive; negative
Test System: E. COLI, Strain/Indicator: WP2UVRA/PKM101, Metabolic Activation: NONE, Method: PREINCUBATION
  mutagenic call: inactive; negative
Test System: E. COLI, Strain/Indicator: WP2UVRA/PKM101, Metabolic Activation: RAT, LIVER, S-9, PHENOBARBITAL AND BETA-NAPHTHOFLAVONE, Method: PREINCUBATION
  mutagenic call: inactive; negative
Test System: E. COLI, Strain/Indicator: WP2UVRA, Metabolic Activation: NONE, Method: PREINCUBATION
  mutagenic call: inactive; negative
Test System: E. COLI, Strain/Indicator: WP2UVRA, Metabolic Activation: RAT, LIVER, S-9, PHENOBARBITAL AND BETA-NAPHTHOFLAVONE, Method: PREINCUBATION
  mutagenic call: inactive; negative

## COc1ccc2c3c(cccc13)OC([N+](=O)[O-])=C2
[5]
  mutagenic call: inactive; negative
Test System: AMES SALMONELLA TYPHIMURIUM, Strain/Indicator: TA98, Metabolic Activation: S-9, Method: STANDARD PLATE
  mutagenic call: inactive; negative
[7]
  mutagenic call: active; positive
Test System: AMES SALMONELLA TYPHIMURIUM, Strain/Indicator: TA100, Metabolic Activation: S-9, Method: STANDARD PLATE
  mutagenic call: inactive; negative

## O=C1CCC(=O)N1c1ccc(Cl)c(Cl)c1Cl
[5]
  mutagenic call: inactive; negative
[6]
  mutagenic call: inactive; negative
[7]
  mutagenic call: inactive; negative
[1]
  mutagenic call: inactive; negative

## CCCCN(C(CCC)OC(C)=O)[N+](=O)[O-] (centres undefined)
Test System: E. COLI, Strain/Indicator: WP2 (HCR-), Metabolic Activation: NONE
  mutagenic call: active; positive

## O[C@@H]1C=Cc2ccc3c(ccc4ccccc43)c2[C@H]1O
[5]
  mutagenic call: inactive; negative
[6]
  mutagenic call: active; positive
[7]
  mutagenic call: inactive; negative
[1]
  mutagenic call: active; positive

## OC1Cc2cc3cccc4ccc5ccc1c2c5c43 (centres undefined)
Test System: AMES SALMONELLA TYPHIMURIUM, Strain/Indicator: TA98, Metabolic Activation: HUMAN, LIVER, CYTOSOL, PAPS, Method: PREINCUBATION
  mutagenic call: active; positive
